Experimental data as given in PubChem BioAssay (NCI).
Values joined by “and” are separate entries in the source; they are usually repeats but may differ in a detail not shown here. Identical values can stand only once.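 Assay format: 96-well plates, 48-hour exposure. GI50 = concentration required for 50% inhibition of growth. TGI is the concentration that stops growth completely.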 Peptide text beside a SMILES is read from it. * marks the point of attachment. Boc = CC(C)(C)OC(=O)*

Tests used:
Assay in all cases: NCI tumour cell line growth inhibition, 48 h
RPMI-8226 leukemia = system: RPMI-8226 leukemia
CAKI-1 renal = system: CAKI-1 renal
SNB-75 CNS = system: SNB-75 CNS
HT29 colon = system: HT29 colon
SK-MEL-5 melanoma = system: SK-MEL-5 melanoma
UO-31 renal = system: UO-31 renal
SNB-19 CNS = system: SNB-19 CNS
HL-60(TB) leukemia = system: HL-60(TB) leukemia
SK-OV-3 ovarian = system: SK-OV-3 ovarian
MALME-3M melanoma = system: MALME-3M melanoma

Row | Compound | TGI (RPMI-8226 leukemia) | TGI (CAKI-1 renal) | TGI (SNB-75 CNS) | TGI (HT29 colon) | TGI (SK-MEL-5 melanoma) | TGI (UO-31 renal) | TGI (SNB-19 CNS) | TGI (HL-60(TB) leukemia) | TGI (SK-OV-3 ovarian) | TGI (MALME-3M melanoma) | GI50 (RPMI-8226 leukemia) | GI50 (SNB-75 CNS)
1 | COC(=O)c1ccc(OCc2ccc3nc(-c4ccccc4)c(Cl)nc3c2)cc1 | > 100 µM | 69.9 µM | 55.4 µM | > 100 µM | > 100 µM | > 100 µM | > 100 µM | > 100 µM | – | – | – | –
2 | c1ccc(C/C(=N\Nc2nc3ccccc3o2)c2ccccn2)cc1 | 0.957 µM | 0.654 µM | – | 4.56 µM | 0.368 µM | 4.55 µM | 20.5 µM | 1.68 µM | 0.0726 µM | 1.82 µM | – | –
3 | Cn1c(=O)c2[nH]c(N/N=C3/SCC(=O)N3Cc3ccccc3)nc2n(C)c1=O | > 100 µM | > 100 µM | – | > 100 µM | > 100 µM | > 100 µM | > 100 µM | > 100 µM | > 100 µM | > 100 µM | – | –
4 | O=C1O/C(=C\c2ccc(O)cc2)C(c2ccc(O)c(Cl)c2)=C1Br | 30.7 µM | 49.3 µM | – | 29.9 µM | 25.9 µM | 36.4 µM | 62.7 µM | 51.2 µM | 37.2 µM | 29.5 µM | – | –
5 | COCCCN1C(=O)C2c3[nH]c4ccccc4c3C3CCC(C(C)(C)C)CC3C2C1=O (configuration not stated) | 56.1 µM | 55 µM | > 100 µM | 34 µM | 82.4 µM | > 100 µM | > 100 µM | 54.5 µM | > 100 µM | – | – | –
6 | BrCC[P+](c1ccccc1)(c1ccccc1)c1ccccc1 | 8.08 µM | 25.2 µM | 9.86 µM | 30.2 µM | 26.3 µM | 22.8 µM | 62.1 µM | 5.33 µM | 66.4 µM | – | – | –
7 | CC(=O)Nc1ccc(C(=O)N2N=C(C)/C(=C/c3cccc(O)c3)C2=O)cc1 | – | > 100 µM | > 100 µM | > 100 µM | > 100 µM | > 100 µM | > 100 µM | – | – | > 100 µM | – | –
8 | CSCCC(NC(=O)C(CC(C)C)NC(=O)CNC(=O)OC(C)(C)C)C(=O)N(C)C (stereo not drawn) (Boc-Gly-Leu-Met-NMe2; configuration not given here) | – | > 100 µM | – | > 100 µM | > 100 µM | > 100 µM | > 100 µM | > 100 µM | > 100 µM | > 100 µM | – | –
9 | Cc1cccc(N2CCN(S(=O)(=O)c3ccc(Cl)cc3)C2=N)c1C | > 100 µM | > 100 µM | > 100 µM | > 100 µM | > 100 µM | > 100 µM | > 100 µM | – | > 100 µM | – | – | –
10 | C=C(CCC(C(=O)O)C1CCC2(C)C3=C(CCC12C)C1(C)CCC(O)C(C)(C)C1CC3)C(C)C (configuration not stated) | 79.7 µM | > 100 µM | > 100 µM | > 100 µM | > 100 µM | > 100 µM | > 100 µM | – | > 100 µM | – | – | –
11 | O=C1N2CCc3c([nH]c4ccccc34)C23CC2CCCC12S3 (configuration not stated) | > 50 µM | > 50 µM | – | > 50 µM | > 50 µM | > 50 µM | > 50 µM | > 50 µM | > 50 µM | > 50 µM | – | –
12 | CC(C)CC1c2[nH]c3ccccc3c2C[C@H]2C(=O)NC(COC(C)(C)C)C(=O)N12 (some centres not stated) | 58 µM | 79.5 µM | – | 38.3 µM | 47.4 µM | > 100 µM | > 100 µM | 53.4 µM | > 100 µM | 48.2 µM | – | –
13 | COc1ccc(S(=O)(=O)Nc2ccc(-c3csc(N4C(=O)/C(=C/C=C\c5ccccc5)N=C4c4ccccc4)n3)cc2)cc1Cl | – | > 100 µM | > 100 µM | > 100 µM | > 100 µM | 58.6 µM | > 100 µM | 59.9 µM | > 100 µM | 63.1 µM | – | –
14 | COc1ccc(NC(=O)C2=C(SC)C(=O)N=C2N)cc1 | > 100 µM | > 100 µM | > 100 µM | > 100 µM | > 100 µM | > 100 µM | > 100 µM | > 100 µM | > 100 µM | – | – | –
15 | COc1cc2c(c(OC)c1OC)-c1ccc(SC)c(=O)cc1[C@@H](NC(=O)c1ccc(C#N)cc1)CC2 | > 100 µM | – | 92.4 µM | < 0.01 µM | < 0.01 µM | > 100 µM | – | – | – | 96.9 µM | – | –
16 | CSC1(SC)CCCCCCCCCCC1 | > 100 µM | > 100 µM | – | > 100 µM | > 100 µM | > 100 µM | > 100 µM | > 100 µM | > 100 µM | 70.9 µM | – | –
17 | CN1C(=O)[C@@]2(C=CC3(CC2)OCCO3)c2ccccc21 | > 50 µM | > 50 µM | 49.5 µM | > 50 µM | > 50 µM | > 50 µM | > 50 µM | > 50 µM | > 50 µM | – | – | –

Row | Compound | TGI (RPMI-8226 leukemia) | TGI (CAKI-1 renal) | TGI (SNB-75 CNS) | TGI (HT29 colon) | TGI (SK-MEL-5 melanoma) | TGI (UO-31 renal) | TGI (SNB-19 CNS) | TGI (HL-60(TB) leukemia) | TGI (SK-OV-3 ovarian) | TGI (MALME-3M melanoma) | GI50 (RPMI-8226 leukemia) | GI50 (SNB-75 CNS)
18 | COc1cc2cc3c4c(cc(OC)c(OC)c4c2cc1OC)CCN3C(=O)OCCBr | – | > 100 µM | > 100 µM | > 100 µM | > 100 µM | > 100 µM | > 100 µM | > 100 µM | > 100 µM | > 100 µM | – | –
19 | Clc1ncc(C(Cl)(Cl)Cl)nc1-c1ccccc1 | – | 5.46 µM | 6.24 µM | 3.65 µM | 26.4 µM | 3.34 µM | 3.19 µM | 6.41 µM | 24.3 µM | 19.1 µM | – | –
20 | c1ccc(COc2ncccc2C2SCCCS2)cc1 | > 100 µM | > 100 µM | – | – | > 100 µM | > 100 µM | > 100 µM | – | – | > 100 µM | – | –
21 | N#Cc1nnc2c3c(-c4ccc(Cl)cc4)c(C#N)c(=O)[nH]c3nn2c1N | 51.1 µM | 16.4 µM | – | 21.2 µM | 19.1 µM | 20.7 µM | 19.5 µM | > 100 µM | 18.2 µM | 31.6 µM | – | –
22 | CSc1s[s+]c(SC)c1-c1ccccc1 | 56.7 µM | 36.4 µM | – | 32.3 µM | 29.3 µM | 46.3 µM | 35.1 µM | 60.6 µM | 38 µM | 24.6 µM | – | –
23 | C=CCN1C(=O)/C(=C/c2ccc(Cl)cc2)N=C1SC1OC(COC(C)=O)C(OC(C)=O)C(OC(C)=O)C1OC(C)=O (configuration not stated) | > 100 µM and 46.8 µM | 28.3 µM and > 100 µM | 13.8 µM and 81.5 µM | > 100 µM | > 100 µM | – | 87.6 µM | – | > 61.8 µM and 65.6 µM | 15 µM and > 100 µM | 11.2 µM and 5.19 µM | 4.11 µM and 25.9 µM
24 | CC(=O)OCC1OC(n2c3c(c(-c4ccco4)c(C#N)c2=S)CCCC3)C(OC(C)=O)C(OC(C)=O)C1OC(C)=O (configuration not stated) | > 100 µM | 87.8 µM | 24.6 µM | > 31.6 µM | > 31.6 µM | > 31.6 µM | 26.2 µM | – | – | > 31.6 µM | – | –
25 | COC1(OC)N=C(N)C2(C#N)/C(=N/N(C)C)CC(C)C12C#N (configuration not stated) | – | > 100 µM | > 100 µM | > 100 µM | > 100 µM | > 100 µM | > 100 µM | > 100 µM | > 100 µM | > 100 µM | – | –
26 | C=C1C(=O)O[C@H]2C(=O)[C@H](C)CCC[C@@](C)(O)/C=C\C[C@@]3(C)O[C@@H]3C[C@@H]12 | 33.7 µM | 27 µM | – | 28.4 µM | 29 µM | 27.6 µM | > 100 µM | – | > 100 µM | – | – | –
27 | C=CC1(CCC(Br)C(C)(C)Cl)CO1 (configuration not stated) | > 10 µM | > 10 µM | > 10 µM | > 10 µM | > 10 µM | > 10 µM | > 10 µM | – | > 10 µM | > 10 µM | – | –
28 | COc1ccccc1OC/C(N=Cc1ccncc1)=N/NC(=O)c1ccncc1 | > 100 µM | > 100 µM | – | > 100 µM | – | – | > 100 µM | > 100 µM | > 100 µM | > 100 µM | – | –
29 | CCCCCCCC(CC(=O)O)OC(=O)CC(CCCCCCC)OC1OC(C)C(O)C(O)C1OC1OC(C)C(O)C(O)C1O (configuration not stated) | > 100 µM | > 100 µM | > 100 µM | > 100 µM | > 100 µM | > 100 µM | > 100 µM | – | > 100 µM | > 100 µM | – | –
30 | O=C(Cc1nc2ccc([N+](=O)[O-])cc2[nH]c1=O)C(=O)Nc1cc(Cl)c(Cl)cc1Cl | – | > 100 µM | > 100 µM | > 100 µM | > 100 µM | > 100 µM | > 100 µM | – | > 100 µM | > 100 µM | – | –
31 | COc1cc2c(cc1OC)C1Cc3ccccc3CN1CCC2 (configuration not stated) | – | > 100 µM | > 100 µM | > 100 µM | > 100 µM | – | > 100 µM | – | > 100 µM | > 100 µM | – | –
32 | O=C(CCN1CCCCC1CO)Nc1ccc2c(c1)C(=O)c1ccc(NC(=O)CCN3CCCCC3CO)cc1C2=O (configuration not stated) | 48 µM | 57.6 µM | – | 31.6 µM | 29 µM | 26.7 µM | 31.2 µM | 29.8 µM | 46.2 µM | 18.8 µM | – | –
33 | COC(=O)CNC(=O)/C=C/[C@H](O[Si](C)(C)C(C)(C)C)[C@H](/C=C/C(=O)NCC(=O)OC)O[Si](C)(C)C(C)(C)C | > 25 µM | > 25 µM | > 25 µM | > 25 µM | > 25 µM | > 25 µM | > 25 µM | – | > 25 µM | > 25 µM | – | –
34 | CN(C)CCNC(=O)c1cccc2c(NC(CS)C(=O)O)c3ccccc3nc12 (configuration not stated) | – | 57.1 µM | 38.5 µM | 52.3 µM | 20 µM | 11.8 µM | 50.9 µM | 9.72 µM | 80.7 µM | 11.3 µM | – | –
